# Laboratory results from patent publication US20240335500A1, “CONTROLLING PRO-INFLAMMATORY MACROPHAGE PHENOTYPE THROUGH BIOFUNCTIONAL HYDROGEL DESIGN” (UNIVERSITY OF FLORIDA RESEARCH FOUNDATION, INCORPORATED, priority 2021, published 2024).
# Assays:
# [1] = tested on: Raw 264.7 macrophages; experiment: iNOS and CD206 expression in M0, M1 and M2 raw 264.7 macrophages encapsulated in control and PEG-DGEA hydrogels; type: cell-based, mouse
# [2] = tested on: Raw 264.7 macrophages; experiment: Soluble delivery of DGEA to 2D cultures of M1-stimulated macrophages, iNOS/DAPI immunostaining; type: cell-based, mouse; details: 2D culture, M1 media (100 ng/mL LPS, 10 ng/mL IFNγ), 5 mM soluble DGEA, 72 hrs; without DGEA 0.5±0.1; p<0.05
# Procedure: To establish interactions between DGEA and M1 macrophages, a 2D study was conducted with soluble delivery of DGEA to the media culture. […] 5 mM DGEA was dissolved in the media to assess the effects of DGEA on macrophage activation (S. Y. Yoo, M. Kobayashi, P. P. Lee, and S. W. Lee, “Early osteogenic differentiation of mouse preosteoblasts induced by collagen-derived DGEA-peptide on nanofibrous phage tissue matrices,” Biomacromolecules, vol. 12, no. 4, pp. 987-996, April 2011). After stimulation, the cells were stained for 4′,6-diamidino-2-phenylindole (DAPI) and iNOS (inset (b) of FIG. 1). The addition of 5 mM DGEA in the media reduced the number of iNOS^+ cells, as represented in insets (b) and (c) in FIG. 1. The iNOS^+ cell count was normalized to the number of DAPI^+ cells for each image chosen to be analyzed. […] Polarized iNOS^+ macrophage cells with soluble DGEA were dramatically lower than iNOS^+ macrophage cells without any presence of DGEA. […] ECM-derived peptides have been investigated in cell function. For example, the interaction between collagen and α2β1 integrin is important for the osteoblastic differentiation of bone marrow cells. […]
# (§1) Cells were stimulated with M1 media 24 hrs post-seeding and post-encapsulation. In all studies, the effects of DGEA on the cells were assessed 72 hrs post-stimulation with M1 media by immunocytochemistry (ICC). […]
# [3] = tested on: TNFα, IL-6, iNOS gene expression; experiment: RT-PCR of pro-inflammatory gene expression (TNFα, IL-6, iNOS); type: cell-based; details: FIG. 7
# Text: The results validate the inflammation inhibiting properties of DGEA by looking at pro-inflammatory gene expressions. The genes assessed include TNFα (a); IL-6 (b); and iNOS (c).
# [4] = tested on: bone marrow cells; details: bone marrow cells encapsulated in type I collagen matrix gels, Mizuno et al.; cited from earlier work
# [5] = tested on: platelets; details: Luzak et al.; cited from earlier work
# [6] = tested on: Raw 264.7 macrophages; experiment: Soluble delivery of DGEA to macrophages encapsulated in 3D control PEG hydrogels, iNOS/DAPI immunostaining; type: cell-based, mouse; details: 3D control hydrogel (3.5 mM PEG-RGDS, 5% PEG-PQ-PEG), 5 mM soluble DGEA in M1 media, 72 hrs; non-significant (p>0.05)
# Procedure: Raw 264.7 macrophages were encapsulated within the hydrogel. These quiescent M0 macrophages were allowed to equilibrate in the incubator for 24 hrs, after which M1 media was added to stimulate them towards the pro-inflammatory phenotype. At this time, 5 mM DGEA was also dissolved into the media and the samples were incubated for another 72 hrs. The samples were then fixed, stained, imaged, and analyzed. The immunofluorescent images represent DAPI stained cells and iNOS stained cells (inset (b) in FIG. 2). The 3D hydrogels were imaged using a Keyence BZ-X800 microscope and the images represent 2D slices of an entire 3D Z-stack. […] The data were statistically non-significant (p>0.05). […]
# as §1
# Images were quantified based on the number of iNOS^+ cells, normalized to DAPI^+ cells for each condition. Images were analyzed using the “automated cell counting of single color image” feature on ImageJ (NIH) software after a randomized, unbiased selection of images. All images were turned to 8-bit grayscale and threshold to highlight all the cells to be counted. […]
# [7] = target: T1, α2β1 integrin (Homo sapiens, UniProt P05556+P17301); details: DGEA-coated plates, Cha et al.; cited from earlier work
# T1 construct: Integrin α2β1 appears to play a pivotal role in macrophage polarization by affecting downstream signaling pathways
# [8] = tested on: ovarian carcinoma cells; details: Fishman et al.; cited from earlier work
# T1 sequence (P17301 30-1181): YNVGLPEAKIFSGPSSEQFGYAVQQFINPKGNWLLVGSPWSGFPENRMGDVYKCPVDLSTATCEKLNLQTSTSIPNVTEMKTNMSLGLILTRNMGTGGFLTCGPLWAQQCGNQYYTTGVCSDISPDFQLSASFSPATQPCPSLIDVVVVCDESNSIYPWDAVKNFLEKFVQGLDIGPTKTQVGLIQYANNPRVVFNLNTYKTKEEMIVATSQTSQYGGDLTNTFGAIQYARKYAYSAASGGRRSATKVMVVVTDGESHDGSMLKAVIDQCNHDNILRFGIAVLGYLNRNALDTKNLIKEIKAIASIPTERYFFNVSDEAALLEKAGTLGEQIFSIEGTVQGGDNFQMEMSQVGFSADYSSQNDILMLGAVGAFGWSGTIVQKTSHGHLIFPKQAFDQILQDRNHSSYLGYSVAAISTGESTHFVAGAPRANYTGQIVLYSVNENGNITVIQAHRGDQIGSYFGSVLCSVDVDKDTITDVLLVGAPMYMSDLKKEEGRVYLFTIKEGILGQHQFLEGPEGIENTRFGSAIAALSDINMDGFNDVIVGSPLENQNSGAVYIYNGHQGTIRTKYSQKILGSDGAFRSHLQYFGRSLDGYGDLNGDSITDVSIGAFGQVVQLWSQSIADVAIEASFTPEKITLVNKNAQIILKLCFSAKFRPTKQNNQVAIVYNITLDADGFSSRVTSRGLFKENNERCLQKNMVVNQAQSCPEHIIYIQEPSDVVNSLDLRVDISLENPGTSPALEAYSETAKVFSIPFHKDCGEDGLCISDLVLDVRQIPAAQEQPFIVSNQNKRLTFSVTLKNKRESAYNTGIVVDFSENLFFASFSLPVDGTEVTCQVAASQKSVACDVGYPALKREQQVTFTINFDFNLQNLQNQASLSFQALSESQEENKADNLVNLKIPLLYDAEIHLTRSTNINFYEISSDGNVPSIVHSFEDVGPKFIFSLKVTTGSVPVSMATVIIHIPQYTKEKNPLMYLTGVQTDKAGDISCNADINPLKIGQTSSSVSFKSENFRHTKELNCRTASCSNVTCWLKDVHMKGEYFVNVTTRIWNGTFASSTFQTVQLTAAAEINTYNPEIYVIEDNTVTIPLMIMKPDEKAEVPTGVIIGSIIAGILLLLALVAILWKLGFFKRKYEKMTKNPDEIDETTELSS
# T1 sequence (P05556 21-798): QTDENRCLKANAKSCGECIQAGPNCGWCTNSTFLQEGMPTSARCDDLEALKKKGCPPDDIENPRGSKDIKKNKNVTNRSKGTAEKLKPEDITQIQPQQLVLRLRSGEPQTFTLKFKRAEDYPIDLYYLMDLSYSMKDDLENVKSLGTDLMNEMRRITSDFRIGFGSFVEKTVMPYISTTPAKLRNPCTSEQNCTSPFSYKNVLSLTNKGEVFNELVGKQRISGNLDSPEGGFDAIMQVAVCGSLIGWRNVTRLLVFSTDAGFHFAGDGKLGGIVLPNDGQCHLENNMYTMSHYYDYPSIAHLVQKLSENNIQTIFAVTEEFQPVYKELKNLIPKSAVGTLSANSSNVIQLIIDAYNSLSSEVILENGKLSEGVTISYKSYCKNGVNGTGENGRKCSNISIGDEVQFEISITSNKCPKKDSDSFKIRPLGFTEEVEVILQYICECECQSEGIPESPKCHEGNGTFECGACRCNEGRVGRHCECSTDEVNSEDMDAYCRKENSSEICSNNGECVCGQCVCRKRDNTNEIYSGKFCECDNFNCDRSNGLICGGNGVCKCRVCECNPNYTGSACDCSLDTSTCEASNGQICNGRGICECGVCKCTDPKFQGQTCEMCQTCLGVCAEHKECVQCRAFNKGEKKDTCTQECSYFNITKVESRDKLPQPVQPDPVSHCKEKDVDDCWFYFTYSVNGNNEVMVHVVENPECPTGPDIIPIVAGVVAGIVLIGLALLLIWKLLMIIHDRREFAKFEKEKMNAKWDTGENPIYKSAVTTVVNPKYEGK
substance,measurement,setting,value
Asp-Gly-Glu-Ala (DGEA; DGEA peptide sequence),iNOS expression,"[1]; M0, M1 and M2 macrophages encapsulated in PEG-DGEA vs control hydrogels, FIG. 8",reduced iNOS expression
same,CD206 expression,"[1]; M1 or M2 macrophage phenotypes in PEG-DGEA hydrogels, FIG. 9",did not appear to have any significant effects
same,iNOS+ M1 activated macrophages as fraction of the total DAPI+ cells,[2],0.1±0.1
same,"expression of pro-inflammatory mediators (TNFα, IL-6, iNOS) by RT-PCR",[3],significantly reduces expression
same,expression of osteoblastic phenotype,[4],inhibited the expression of osteoblastic phenotype
same,platelet adhesion,[5],significant inhibition in platelet adhesion
same,number of iNOS+ cells (normalized to DAPI+ cells),[6],lower than the number of iNOS^+ cells without any DGEA
same,expression of CD206 (M2 marker),[7],higher expression of CD206
same,adhesion of ovarian carcinoma cells to collagen,[8],block adhesion
